Measurements reported in patent EP3954371B1, “ANTI-ACETYLCHOLINESTERASE ACTIVE COMPOSITION IN CAULIS MAHONIAE AND SCREENING METHOD THEREFOR AND APPLICATION THEREOF” (Shenzhen Institute for Drug Control (Shenzhen Testing …, priority 2019, dated 2021).

Tests used:
AChE [1] = biological target: T1, AChE (Homo sapiens, UniProt P22303); assay: synergistic effect of combined active components (FIC) by AChE assay method; type: biochemical; details: for effect of combinations when used as the first alkaloid: first alkaloid diluted stepwise, other alkaloids fixed at IC30; for IC20 / IC80 / IC90 / IC50: first compound diluted, added compounds fixed at IC30, unit not in table; for IC20: read-out: IC Value (Standard Deviation) IC20; for IC80: read-out: IC Value (Standard Deviation) IC80; for IC90: read-out: IC Value (Standard Deviation) IC90; for IC50: read-out: IC Value (Standard Deviation) IC50 (converted)
T1 construct: purchased Sigma
Protocol: One pharmaceutical component, compound A, was selected and diluted step by step according to 1:1; the concentration of a second pharmaceutical component, compound B, was fixed to IC30; based on a size of a fractional inhibitory concentration (FIC) value, the concentration of compound A was fixed, the concentration of pharmaceutical compound B was changed, and the FIC value was determined.
Fractional effects (FEs) of the two compounds are as follows: FEA = IC50 (A+B)/IC50 (A) [formula] FEB = IC50 (A+B)/IC50 (B) [formula] FIC = FEA + FEB [formula]
By analogy, all possible combinations were calculated. Table 4 Dilution concentration and fold

AChE [2] = biological target: T1, AChE; assay: biochemical; details: mean ± standard deviation, repeated three times; 10 min at 37 °C, absorbance at 405 nm
Protocol: For the reaction system, see Table 3. The specific steps are described below.
140 µL of phosphate buffer (PBS, 0.1 mol/L, pH = 7.4), 20 µL of AChE (0.303 U/mL) and 20 µL of sample solution were added in sequence to a 96-well plate, mixed evenly, and added with 10 µL of DTNB (3.3 mM) and 10 µL of acetylthiocholine iodide (ATCI) (15 mM). They were mixed evenly and incubated for 10 min at 37 °C, then measured absorbance at 405 nm.
The sample was replaced with PBS in a blank enzyme group. The sample was replaced with PBS in a blank enzyme-free group. The enzyme solution was replaced with PBS in the sample control group.
The inhibitory rate of the sample against AChE activity is calculated by the following formula: Inhibitory rate = [1−(Asample−Asample control)/(Ablank enzyme−Ablank enzyme−free)] × 100% [formula]
The median inhibitory concentration of AChE was calculated by testing inhibitory rates at different sample concentrations. […] Table 3 Anti-AChE activity screening method

AChE [3] = biological target: T1, AChE; type: binding; details: 20 µg/mL in ammonium acetate buffer (10 mM, pH = 7.4) for standards; FIGS. 4A, 4B, 5
Protocol: In a first step, a mobile phase, the ammonium acetate buffer (10 mM, pH = 7.4), was provided by a peristaltic pump at a flow rate of 5 µL/min and a sample was injected at a volume of 100 µL, and the process lasted for 40 min, then fractions were collected.
In a second step, the mobile phase was changed from the ammonium acetate buffer (10 mM, pH = 7.4) to methanol and provided at a flow rate of 20 µL/min and target components were dissociated from proteins, and the process lasted for 20 min, then fractions were collected.
A blank control monolithic column, Control-ICER, was set by the same operation method and the corresponding fractions were collected.
The collected fractions were blown to dryness with N2, dissolved in 100 µL of methanol, and analyzed through LC-MS.
LC-MS conditions: a chromatographic column Thermo Acclaim TM C18 (4.6 mm× 250 mm, 5 µm); mobile phases where acetonitrile was mobile phase A and 0.08% (v/v) formic acid and a 2 mM ammonium acetate solution were mobile phase B; a flow rate of 1.0 mL/min; an injection volume of 3 µL; a column temperature of 25 °C; and a detection wavelength of 280 nm. […]

T1 sequence (P22303 32-614): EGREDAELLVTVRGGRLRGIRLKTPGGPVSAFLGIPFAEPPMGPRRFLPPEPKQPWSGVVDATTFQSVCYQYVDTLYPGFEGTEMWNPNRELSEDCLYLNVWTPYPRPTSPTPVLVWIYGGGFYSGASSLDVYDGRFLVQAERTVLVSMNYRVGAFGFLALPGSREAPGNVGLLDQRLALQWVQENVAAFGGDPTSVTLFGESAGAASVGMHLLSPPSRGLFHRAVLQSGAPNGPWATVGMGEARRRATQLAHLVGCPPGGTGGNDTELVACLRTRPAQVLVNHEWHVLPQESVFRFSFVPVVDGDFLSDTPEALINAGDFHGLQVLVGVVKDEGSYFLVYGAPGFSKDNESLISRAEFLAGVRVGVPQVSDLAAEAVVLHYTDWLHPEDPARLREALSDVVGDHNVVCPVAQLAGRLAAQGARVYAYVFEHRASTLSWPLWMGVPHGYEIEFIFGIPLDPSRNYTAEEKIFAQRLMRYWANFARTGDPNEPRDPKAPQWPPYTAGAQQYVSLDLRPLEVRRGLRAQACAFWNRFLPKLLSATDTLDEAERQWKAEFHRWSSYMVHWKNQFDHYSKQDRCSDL

| SMILES | effect of combinations when used as the first alkaloid (AChE [1]) | IC20 (AChE [1]) [µg/mL] | IC80 (AChE [1]) [µg/mL] | IC90 (AChE [1]) [µg/mL] | IC50 (AChE [2]) [µM] | IC50 (AChE [1]) [µM] | retention on AChE-ICER / Control-ICER (specific binding) (AChE [3]) |
| --- | --- | --- | --- | --- | --- | --- | --- |
| COc1ccc2cc3[n+](cc2c1OC)CCc1cc2c(cc1-3)OCO2 [Ber, berberine] | only the irrelevant effect or the antagonistic effect | 0.26 | 24.1 | 50.2 |  |  |  |
| COc1cc2c(cc1O)-c1cc3ccc(OC)c(OC)c3c[n+]1CC2 [Col, columbamine] | significant synergistic effect | 0.18 | 4.8 | 12.5 | 2.75 | 2.75 |  |
| COc1cc2c(cc1O)CC[n+]1cc3c(OC)c(OC)ccc3cc1-2 [Jat, jatrorrhizine] | significant synergistic effect | 0.39 | 31.4 | 63.2 | 10.3 | 10.3 |  |
| COc1cc2c(cc1OC)-c1cc3ccc(OC)c(OC)c3c[n+]1CC2 [Pal, palmatine] | only the irrelevant effect or the antagonistic effect | 0.1 | 22.8 | 48.3 | 4.31 | 4.31 |  |
| CCCC(=O)Nc1ccc(OCC(O)CNC(C)C)c(C(C)=O)c1 (centres unmarked) [acebutolol] |  |  |  |  |  |  | remains neither on AChE-ICER nor on enzyme-inactive Control-ICER |
